Literature values, collected in US11874283B2, “Method and compositions for the treatment and detection of endothelin-1 related kidney diseases” (MOREHOUSE SCHOOL OF MEDICINE, priority 2010, dated 2024).
Ends that are not written are not given here.

System: ET-1 ELISA
Conditions: as determined by the manufacturer

Row | Substance | Cross reactivity
1 | ET-2: endothelin peptide cross-reacting in the ET-1 ELISA (CSCSSWLDKECVYFCHLDIIW; ends and bridges not checked; cysteine pairing not given here; UniProt P20800 49-69, looked up) | 45%
2 | ET-3: endothelin peptide cross-reacting in the ET-1 ELISA (CTCFTYKDKECVYYCHLDIIW; ends and bridges not checked; cysteine pairing not given here; UniProt P14138 97-117, looked up) | 14%
3 | big ET-1: biologically inactive 38-amino acid precursor of ET-1 (CSCSSLMDKECVYFCHLDIIWVNTPEHVVPYGLGSPRS; ends and bridges not checked; cysteine pairing not given here; UniProt P05305 53-90, looked up) | less than 1%
